In ChEMBL document CHEMBL1177844 (Eur J Med Chem, 2010):

Experiment: Inhibition of ROCK

pIC50 | Compound
7.19 | Clc1ccc(CN2CCC(Nc3cccc4cnccc34)C2)cc1 (stereo not drawn)
7.15 | c1cc(N[C@H]2CC[C@H](NC3CC3)CC2)c2ccncc2c1
7.96 | Clc1ccc(CN2CCCC(Nc3ccc4[nH]ncc4c3)C2)cc1 (stereo not drawn)
6.66 | O=C(NCc1ccc(Cl)cc1Cl)Nc1ccc2[nH]ncc2c1
8 | Fc1ccc(CN2CCCC(Nc3ccc4[nH]ncc4c3)C2)cc1F (stereo not drawn)
7.14 | c1cncc(CN2CCCC(Nc3ccc4[nH]ncc4c3)C2)c1 (stereo not drawn)
6.82 | Cc1n[nH]c2ccc(NC3CCCN(Cc4ccccc4)C3)cc12 (stereo not drawn)
7.7 | c1ccc(CN2CCCC(Nc3ccc4[nH]ncc4c3)C2)cc1 (stereo not drawn)
6.58 | Clc1cccc(CN2CCCC(Nc3cccc4cnccc34)C2)c1 (stereo not drawn)
6.59 | O=C(NCc1ccccc1)Nc1ccc2[nH]ncc2c1
7.46 | Nc1cccc(CN2CCCC(Nc3ccc4[nH]ncc4c3)C2)c1 (stereo not drawn)
7.96 | c1c[nH]c(CN2CCCC(Nc3ccc4[nH]ncc4c3)C2)c1 (stereo not drawn)
6.63 | Nc1ccc(CN2CCC(Nc3cccc4cnccc34)C2)cc1 (stereo not drawn)
7.1 | COc1cc(CN2CCCC(Nc3ccc4[nH]ncc4c3)C2)cc(OC)c1 (stereo not drawn)
6.36 | Clc1ccccc1CN1CCC(Nc2ccc3[nH]ncc3c2)CC1
6.57 | CC(C)CCN1CCCC(Nc2cccc3cnccc23)C1 (stereo not drawn)
7.74 | O=C(Nc1ccc2[nH]ncc2c1)C1CCCN(Cc2ccccc2)C1 (stereo not drawn)
7.35 | Clc1ccccc1CN1CCC(Nc2ccc3[nH]ncc3c2)C1 (stereo not drawn)
6.56 | Nc1cccc(CN2CCC(Nc3cccc4cnccc34)C2)c1 (stereo not drawn)
6.62 | c1ccc(CN2CCCC(Nc3ccc4[nH]ncc4c3)C2)nc1 (stereo not drawn)
5.1 | CN(CCNc1ccc2[nH]ncc2c1)Cc1ccccc1
8 | Nc1ccc(CN2CCCC(Nc3ccc4[nH]ncc4c3)C2)cc1 (stereo not drawn)
6.85 | c1ccc(CN2CCC(Nc3cccc4cnccc34)CC2)cc1

pIC50 | Compound
7 | c1cc2[nH]ncc2cc1NC1CCNC1 (stereo not drawn)
6.74 | CCCN[C@H]1CC[C@@H](Nc2cccc3cnccc23)CC1
8 | c1ccc(CN2CCCC(Oc3ccc4[nH]ncc4c3)C2)cc1 (stereo not drawn)
7.49 | c1ccc(CN2CCC(Nc3ccc4[nH]ncc4c3)C2)cc1 (stereo not drawn)
7.19 | Clc1cccc(CN2CCC(Nc3cccc4cnccc34)C2)c1 (stereo not drawn)
6.49 | c1ccc(CN[C@H]2CC[C@@H](Nc3ccc4[nH]ncc4c3)CC2)cc1
7 | c1ccc(CN2CCC(Oc3ccc4[nH]ncc4c3)CC2)cc1
7.8 | COc1ccc(CN2CCCC(Nc3ccc4[nH]ncc4c3)C2)cc1 (stereo not drawn)
6.74 | c1coc(CN2CCCC(Nc3ccc4[nH]ncc4c3)C2)c1 (stereo not drawn)
6.27 | O=C(NC1CCN(Cc2ccccc2)CC1)c1ccc2[nH]ncc2c1
6.7 | CNC1CCC(Nc2cccc3cnccc23)CC1 (stereo not drawn)
6.46 | CCCN1CCC(Nc2cccc3cnccc23)CC1
8.05 | Cc1ccc(CN2CCCC(Nc3ccc4[nH]ncc4c3)C2)cc1 (stereo not drawn)
6.39 | c1ccc(CCN[C@H]2CC[C@H](Nc3cccc4cnccc34)CC2)cc1
7 | Clc1ccccc1CN1CCC(Nc2cccc3cnccc23)C1 (stereo not drawn)
7.6 | Fc1ccc(CN2CCCC(Nc3ccc4[nH]ncc4c3)C2)cc1 (stereo not drawn)
7.02 | Fc1ccc(CN2CCC(Nc3cccc4cnccc34)C2)cc1 (stereo not drawn)
7.07 | O=C(NCc1c(F)cccc1F)Nc1ccc2[nH]ncc2c1
7.06 | O=[N+]([O-])c1ccc(CN2CCCC(Nc3ccc4[nH]ncc4c3)C2)cc1 (stereo not drawn)
6.52 | c1cc2[nH]ncc2cc1NC1CCNCC1
6.3 | O=C(Nc1ccc2[nH]ncc2c1)C1CCCCC1
6.3 | O=C(COc1c(Cl)cc(F)cc1Cl)Nc1ccc2[nH]ncc2c1
7.07 | Nc1ccccc1CN1CCCC(Nc2ccc3[nH]ncc3c2)C1 (stereo not drawn)

pIC50 | Compound
6.15 | CCN1CCC(Nc2ccc3[nH]ncc3c2)CC1
7 | CC(C)CCCN1CCCC(Nc2cccc3cnccc23)C1 (stereo not drawn)
6 | O=C(COc1c(Cl)cccc1Cl)Nc1ccc2[nH]ncc2c1
7.72 | Clc1cccc(CN2CCCC(Nc3ccc4[nH]ncc4c3)C2)c1 (stereo not drawn)
6.69 | Nc1ccccc1CN1CCC(Nc2cccc3cnccc23)C1 (stereo not drawn)
6.24 | c1ccc(CCN[C@H]2CC[C@@H](Nc3cccc4cnccc34)CC2)cc1
6.68 | Clc1ccccc1CN1CCCC(Nc2cccc3cnccc23)C1 (stereo not drawn)
6.87 | O=C(Nc1ccc2[nH]ncc2c1)C1CCN(Cc2ccccc2)CC1
6.54 | Clc1cccc(CN2CCC(Nc3ccc4[nH]ncc4c3)CC2)c1
7.7 | O=C(NCc1c(Cl)cccc1Cl)Nc1ccc2[nH]ncc2c1
6.28 | c1ccc(CN[C@H]2CC[C@H](Nc3ccc4[nH]ncc4c3)CC2)cc1
7.12 | Fc1cccc(F)c1CN1CCC(Nc2cccc3cnccc23)C1 (stereo not drawn)
6.05 | O=C(CC1CCCCC1)Nc1ccc2[nH]ncc2c1
6.74 | CCCN[C@H]1CC[C@H](Nc2cccc3cnccc23)CC1
6.74 | c1cc(N[C@H]2CC[C@@H](NC3CC3)CC2)c2ccncc2c1
6.7 | c1ccc(CN2CCCC(Nc3cccc4cnccc34)C2)cc1 (stereo not drawn)
6.47 | CC(C)CCN1CCCC(Nc2ccc3[nH]ncc3c2)C1 (stereo not drawn)
6.68 | CC(C)CN1CCC(Nc2cccc3cnccc23)CC1
6.54 | Clc1ccc(CN2CCC(Nc3ccc4[nH]ncc4c3)CC2)cc1
7.89 | Clc1ccccc1CN1CCCC(Nc2ccc3[nH]ncc3c2)C1 (stereo not drawn)
6.11 | CCCN1CCCC(Nc2ccc3[nH]ncc3c2)C1 (stereo not drawn)
6.4 | Fc1cc2[nH]ncc2cc1NC1CCCN(Cc2ccccc2)C1 (stereo not drawn)
